Data from PMC9821843, “Powerful Potential of Polyfluoroalkyl-Containing 4-Arylhydrazinylidenepyrazol-3-ones for Pharmaceuticals” (Molecules, 2022).
Values after ≈ are worked out from the molar mass of the structure shown. Where two headings read alike, the source gives them in different places.

Key:
[1] = test system: Sprague-Dawley (SD) rats; test: Hot plate test (analgesic activity); assay type: in vivo; details: Rattus norvegicus, hot plate test, rats, ip, dose 15 mg/kg, n.a. = inactive (p > 0.05)
How it was run: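 Test compounds were given i.p. as suspensions in 1% starch mucilage to SD rats (3 male, 3 female per group), vehicle as negative control. At 1 and 2 h post-dose, latency to nociceptive response (jumping, hind paw licking/shaking) on a 50 °C plate was recorded, 30 s cutoff.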

[2] = target: porcine liver carboxylesterase (CES, EC 3.1.1.1) (Sus scrofa, UniProt Q29550); test: Inhibition of porcine liver carboxylesterase (4-NPA colorimetric assay); assay type: biochemical; details: 20 µM; n.a. = inactive at 20 µM; mean ± SEM, n = 3
Description: (§1) The following enzymes were purchased from Sigma-Aldrich (Saint Louis, MO, USA): porcine liver carboxylesterase (CES, EC 3.1.1.1), human erythrocyte acetylcholinesterase (AChE, EC 3.1.1.7) and equine serum butyrylcholinesterase (BChE, EC 3.1.1.8). Substrates for CES, AChE and BChE were 4-nitrophenyl acetate (4-NPA), acetylthiocholine iodide (ATCh) and butyrylthiocholine iodide (BTCh), respectively, and the colorimetric reagent for the AChE and BChE assays was 5,5’-dithio-bis-(2-nitrobenzoic acid) (DTNB) (Sigma-Aldrich). All the kinetic experiments were performed under standard conditions, according to the protocol of IPAC RAS for a reversible inhibitors study.
The CES (porcine liver) activity was assessed colorimetrically in 0.1 M K/Na phosphate buffer pH 8.0, 25 °C, by measuring the absorbance of 4-nitrophenol at 405 nm. Final enzyme and substrate (4-NPA) concentrations were 0.02 unit/mL and 1 mM, respectively. Reagent blanks included all constituents except enzyme.
Test compounds were dissolved in DMSO. Reaction mixtures contained a final DMSO concentration of 2% (v/v). Enzyme inhibition was first assessed at a single concentration of 20 µM for each compound after a 5 min incubation at 25 °C in three separate experiments. […] Substrate was then added and residual enzyme activity relative to an inhibitor-free control was measured using a Bio-Rad Benchmark Plus microplate reader (Marnes-la-Coquette, France).
Measurements were performed in a Bio-Rad Benchmark Plus microplate reader. Each experiment was performed in triplicate. Plots, linear regressions and values of IC50, were determined using Origin 6.1 for Windows, OriginLab (Northampton, MA, USA). Results were calculated using GraphPad Prism version 6.05 for Windows, GraphPad Software (La Jolla, CA, USA) and presented as mean ± SEM.

[3] = test system: Trichophyton rubrum RCPF F 1408; test: Antifungal susceptibility testing, T. rubrum; details: Trichophyton rubrum, RCPFF1408, read-out: MIC for fungi strains inhibition, T. rubrum
Description: (§3) The solvent was DMSO. […] In each test, a growth control and a sterility control were used.

[4] = test system: Candida albicans RCPF Y 401/NCTC 885/653; test: Antifungal susceptibility testing, C. albicans; details: NCTC885, read-out: MIC for fungi strains inhibition, C. albicans
Description: as §3

[5] = target: T1, human erythrocyte acetylcholinesterase (AChE, EC 3.1.1.7) (Homo sapiens, UniProt P22303); test: Inhibition of human erythrocyte acetylcholinesterase (Ellman assay); assay type: biochemical; details: read-out: Inhibition % at 20 µM, Human AChE
T1 construct: human erythrocyte acetylcholinesterase (AChE, EC 3.1.1.7); purchased Sigma-Aldrich (Saint Louis, MO, USA); host or cells: human erythrocytes
Description: as §1
Reagent blanks consisted of reaction mixtures without enzyme to assess non-enzymatic hydrolysis of substrates.
Test compounds were dissolved in DMSO. Reaction mixtures contained a final DMSO concentration of 2% (v/v). […] Measurements were performed in a Bio-Rad Benchmark Plus microplate reader. Each experiment was performed in triplicate. Plots, linear regressions and values of IC50, were determined using Origin 6.1 for Windows, OriginLab (Northampton, MA, USA).

[6] = Acute toxicity evaluation in mice (ip); details: CD-1, mouse, in vivo, 300 mg/kg
Procedure: The toxicity evaluation was performed on CD-1 mice. […] The tested compounds in 1% starch mucilage were injected intraperitoneally into three mice. Then, animals were observed during 14 days, the number of deaths was counted and % of viability calculated.

[7] = test system: Epidermophyton floccosum RCPF F 1659/17; test: Antifungal susceptibility testing, E. floccosum; details: Epidermophyton floccosum, RCPFF1659/17, read-out: MIC for fungi strains inhibition, E. floccosum
Description: as §3

[8] = test system: Neisseria gonorrhoeae ATCC 49226/NCTC 12700; test: Antibacterial activity against Neisseria gonorrhoeae; assay type: cell-based; details: read-out: MIC against Neisseria gonorrhoeae
[9] = target: T2, equine serum butyrylcholinesterase (BChE, EC 3.1.1.8) (Equus caballus, UniProt P81908); test: Inhibition of equine serum butyrylcholinesterase (Ellman assay); assay type: biochemical; details: read-out: Inhibition % at 20 µM, Equine BChE
T2 construct: equine serum butyrylcholinesterase (BChE, EC 3.1.1.8); purchased Sigma-Aldrich (Saint Louis, MO, USA); host or cells: equine serum
How it was run: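 Ellman colorimetric assay with 0.02 unit/mL BChE, 1 mM butyrylthiocholine iodide and 0.33 mM DTNB, 2% (v/v) DMSO final; substrate added after enzyme-compound mixing. Residual activity versus inhibitor-free control, blanks without enzyme; triplicates, IC50 by linear regression.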

[10] = test system: Microsporum canis RCPF F 1643/1585; test: Antifungal susceptibility testing, M. canis; details: Microsporum canis, RCPFF1643/1585, read-out: MIC for fungi strains inhibition, M. canis
Description: as §3

[11] = Oxygen radical absorbance capacity (ORAC-FL) assay; details: n.a. = inactive; i.t.s. = interferes with test system
How it was run: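 Fluorescein oxidative degradation by the peroxyl radical generator AAPH is monitored in the presence of test compound, a HAT-based read-out. Activity is expressed relative to Trolox as reference antioxidant.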

[12] = test system: HeLa tumor cell line; test: Cytotoxicity against HeLa cells (MTT assay); assay type: cell-based, human; details: Homo sapiens, HeLa, 72 h, read-out: IC50, HeLa
Procedure: (§2) Cytotoxicity of compounds was evaluated using a culture of human dermal fibroblasts, which were isolated in the Laboratory of Cell Cultures of the Institute of Medical Cell Technologies, Ekaterinburg, Russia and a HeLa tumor cell line obtained at the shared research facility «Vertebrate cell culture collection» of the Institute of Cytology of the Russian Academy of Sciences, St. Petersburg, Russia. Cells were seeded in 96-well plates in the inoculum dose of 2 × 10^5 cells/mL and cultured for 24 h in DMEM, with 1% glutamine in the presence of 10% fetal bovine serum and gentamicin (50 mg/L) at 37 °C, with humidified atmosphere of 5% CO2. Then compounds, which were dissolved in DMSO, were added to the wells at the final concentrations of 10^–7, 10^–6, 10^–5 and 10^–4 M. The cells were incubated with compounds for 72 h, after which cell viability was assessed using the standard MTT assay. The assay was carried out in four replicates with negative (culture medium), positive (solution of the cytotoxic drug camptothecin at a concentration of 3 mM) controls and the solvent control (DMSO). The results of the MTT assay were evaluated on a Tecan Infinite M200 PRO (Tecan Austria GmbH, Grödig, Austria) plate spectrophotometer by comparing the optical density of a formazan solution at 570 nm in the assay and control wells. The half maximal inhibitory concentrations (IC50) were calculated by AAT Bioquest-calculator (https://www.aatbio.com/tools/ic50-calculator (accessed on 14 November 2022)).

[13] = test system: human dermal fibroblasts; test: Cytotoxicity against human dermal fibroblasts (MTT assay); assay type: cell-based; details: Fibroblast, 72 h, read-out: IC50, Human Dermal Fibroblasts
Procedure: as §2

[14] = Ferric reducing antioxidant power (FRAP) assay; details: 20 μM; n.a. = inactive
Description: The FRAP assay measures the ability of anti-oxidants to reduce the ferric 2,4,6-tripyridyl-s-triazine complex [Fe(TPTZ)2]^3+ to the intensely blue ferrous colored complex [Fe(TPTZ)2]^2+ with an absorption maximum at λ = 593 nm. The reducing ability of a compound is an indicator of its potential anti-oxidant activity. 2,4,6-Tris(pyridin-2-yl)-1,3,5-triazine (TPTZ), FeCl3·6H2O, Trolox and DMSO were obtained from Sigma-Aldrich Chemical Co (St. Louis, MO, USA).
The ferric reducing ability of the compounds was determined by the method in microplate adapted version described in [116]. The FRAP reagent was prepared by mixing acetate buffer (0.3 M, pH 3.6), TPTZ (10 mM in 40 mM HCl) and FeCl3·6H2O (20 mM in distilled water) in a ratio of 10:1:1 immediately before use. Compounds were dissolved in DMSO and tested in the concentration 20 μM. The solvent content in the reaction mixture was 4% (v/v). The test compounds (10 μL of 0.5 mM solution) were added to the FRAP reagent solution (240 μL) and mixed thoroughly. The reaction was carried out at 37 °C in the dark; the incubation time was 1 h. The absorbance at 600 nm was monitored spectrophotometrically by a FLUOStar OPTIMA microplate reader (BMG Labtech, Ortenberg, Germany) at 37 °C. Trolox was used as a reference compound. Values were obtained from four replicates of each sample in three independent experiments.
The ferric reducing ability of compounds was expressed as TE units (antioxidant activity in Trolox equivalent), the values calculated as the ratio of the concentrations of Trolox and the test compound resulting in the same effect. The calculations were carried out using Origin 6.1 for Windows. Results were presented as mean ± SEM, calculated using GraphPad Prism version 6.05 for Windows, GraphPad Software.

[15] = ABTS radical cation scavenging activity assay; set-up: key to ABTS•+-scavenging activity, TEAC (trolox equivalent antioxidant capacity): TEAC = ratio of compound slope to Trolox slope vs ABTS absorbance; details: mean ± SEM; for ABTS•+-scavenging activity, TEAC (trolox equivalent antioxidant capacity): n.a. = inactive
How it was run: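 ABTS•+ (from 7 mM ABTS plus 2.45 mM persulfate) mixed with compound, 5 × 10^–7–4 × 10^–4 M, 1 h at 30 °C; absorbance decrease read at 734 nm. TEAC from slope ratio versus Trolox; IC50 as 50% radical reduction for compounds exceeding 60% reduction at 100 µM.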

[16] = 1 h, read-out: Latent Period Prolongation, % 1 h
[17] = 2 h, read-out: Latent Period Prolongation, % 2 h

Chain of porcine liver carboxylesterase (CES, EC 3.1.1.1) (Q29550 19-566): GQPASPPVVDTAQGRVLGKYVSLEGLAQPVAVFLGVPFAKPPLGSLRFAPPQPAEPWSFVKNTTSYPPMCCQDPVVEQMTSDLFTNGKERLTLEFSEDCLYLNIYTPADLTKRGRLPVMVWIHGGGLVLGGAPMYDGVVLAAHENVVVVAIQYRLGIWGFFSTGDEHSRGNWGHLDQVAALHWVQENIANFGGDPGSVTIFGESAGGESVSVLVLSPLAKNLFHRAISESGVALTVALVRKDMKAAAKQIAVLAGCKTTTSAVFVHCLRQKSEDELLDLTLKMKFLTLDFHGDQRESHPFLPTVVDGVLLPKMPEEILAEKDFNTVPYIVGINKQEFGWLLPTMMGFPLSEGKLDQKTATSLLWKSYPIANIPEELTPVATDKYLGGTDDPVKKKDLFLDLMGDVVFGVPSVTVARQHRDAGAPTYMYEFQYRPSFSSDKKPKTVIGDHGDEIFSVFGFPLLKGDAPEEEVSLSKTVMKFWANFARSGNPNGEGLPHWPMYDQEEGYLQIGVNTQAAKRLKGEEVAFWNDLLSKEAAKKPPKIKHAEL
T1 sequence (P22303 32-617 isoform P22303-2 limits assumed): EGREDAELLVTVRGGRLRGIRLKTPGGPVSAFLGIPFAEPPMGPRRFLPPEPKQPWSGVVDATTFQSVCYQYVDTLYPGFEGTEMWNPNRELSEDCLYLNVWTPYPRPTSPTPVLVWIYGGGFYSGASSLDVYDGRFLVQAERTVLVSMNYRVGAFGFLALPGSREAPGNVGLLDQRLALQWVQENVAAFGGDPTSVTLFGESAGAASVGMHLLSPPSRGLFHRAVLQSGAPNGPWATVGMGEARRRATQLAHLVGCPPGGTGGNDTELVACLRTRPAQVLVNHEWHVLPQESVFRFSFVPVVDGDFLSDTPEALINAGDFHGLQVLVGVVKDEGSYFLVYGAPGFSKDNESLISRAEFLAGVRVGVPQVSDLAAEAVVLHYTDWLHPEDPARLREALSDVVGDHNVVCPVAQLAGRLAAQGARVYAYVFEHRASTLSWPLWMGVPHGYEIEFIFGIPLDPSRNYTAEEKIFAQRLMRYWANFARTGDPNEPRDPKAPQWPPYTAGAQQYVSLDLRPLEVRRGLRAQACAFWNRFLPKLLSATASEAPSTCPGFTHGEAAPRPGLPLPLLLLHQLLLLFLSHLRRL
T2 sequence (P81908 whole entry): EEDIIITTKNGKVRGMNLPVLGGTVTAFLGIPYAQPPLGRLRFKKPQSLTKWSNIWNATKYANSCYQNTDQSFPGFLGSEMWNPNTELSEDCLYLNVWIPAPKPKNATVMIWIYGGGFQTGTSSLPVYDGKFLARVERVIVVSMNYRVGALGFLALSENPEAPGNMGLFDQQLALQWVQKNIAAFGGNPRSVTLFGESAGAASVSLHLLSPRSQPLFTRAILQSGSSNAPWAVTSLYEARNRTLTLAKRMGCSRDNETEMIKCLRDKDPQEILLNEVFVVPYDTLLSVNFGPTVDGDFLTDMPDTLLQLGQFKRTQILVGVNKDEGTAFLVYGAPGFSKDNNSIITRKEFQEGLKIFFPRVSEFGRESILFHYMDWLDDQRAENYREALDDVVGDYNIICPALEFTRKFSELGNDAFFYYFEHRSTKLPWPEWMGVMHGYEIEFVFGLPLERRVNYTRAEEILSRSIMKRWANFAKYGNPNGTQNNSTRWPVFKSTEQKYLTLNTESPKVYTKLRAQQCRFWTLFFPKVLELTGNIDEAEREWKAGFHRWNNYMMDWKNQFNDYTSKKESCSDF

| Structure (SMILES) | change in vivo at 15 mg/kg [1, 16] [%] | change in vivo at 15 mg/kg [1, 17] [%] | inhibition at 20 µM [2] [%] | MIC [3] [µg/mL] | MIC [4] [µg/mL] | inhibition at 20 µM [5] [%] | survival at 14 days [6] [%] | MIC [7] [µg/mL] | MIC [8] [µg/mL] | inhibition at 20 µM [9] [%] | MIC [10] [µg/mL] | ORAC-FL (TE, antioxidant activity in Trolox equivalents) [11] | FRAP (TE, antioxidant activity in Trolox equivalents) [14] | IC50 [15] [µM] | ABTS•+-scavenging activity, TEAC (trolox equivalent antioxidant capacity) [15] | other results |
| --- | --- | --- | --- | --- | --- | --- | --- | --- | --- | --- | --- | --- | --- | --- | --- | --- |
| O=C1/C(=N\Nc2ccc(Br)cc2)C(C(F)(F)F)=NN1c1ccccc1 [5k, (4Z)-4-[2-(4-Bromophenyl)hydrazinylidene]-2-phenyl-5-(trifluoromethyl)-2,4-dihydro-3H-pyrazol-3-one] | 89 | 76 | 23.2 ± 2 | > 200 | > 200 | 5.4 ± 0.9 | 100 | > 200 | 31.2 (≈ 75.9 µM) | 6 ± 1.1 | > 200 | i.t.s. | – | – | – | – |
| CS(=O)(=O)c1ccc(N/N=C2\C(=O)N(c3ccccc3)N=C2C(F)(F)C(F)(F)F)cc1 [6h, (4Z)-4-(2-[4-(Methylsulfonyl)phenyl]hydrazinylidene)-5-(pentafluoroethyl)-2-phenyl-2,4-dihydro-3H-pyrazol-3-one] | 80 | 98 | 30.8 ± 2.7 | > 200 | > 200 | 4.1 ± 0.8 | 100 | > 200 | 250 (≈ 543 µM) | 5.2 ± 0.9 | > 200 | i.t.s. | – | – | – | – |
| CC[C@@]1(O)C(=O)OCc2c1cc1n(c2=O)Cc2cc3ccccc3nc2-1 [Camptothecin, reference compound] | – | – | – | – | – | – | – | – | – | – | – | – | – | – | – | IC50 [12]: 1080 ± 980 nM; IC50 [13]: 5.38 ± 0.48 µM |
| COc1cccc2c1C(=O)c1c(O)c3c(c(O)c1C2=O)C[C@@](O)(C(=O)CO)C[C@@H]3O[C@H]1C[C@H](N)[C@H](O)[C@H](C)O1 [Doxorubicin, reference compound] | – | – | – | – | – | – | – | – | – | – | – | – | – | – | – | IC50 ([12]; MTT, n.a. = inactive): 4250 ± 550 nM; IC50 ([13]; MTT, n.a. = inactive): 2.72 ± 0.26 µM |
| CC1=NN(c2ccccc2)C(=O)C1 [Edaravone, reference compound] | – | – | – | – | – | – | – | – | – | – | – | 3.71 ± 0.06 | 0.80 ± 0.01 | 21.4 ± 1.8 | 0.96 ± 0.04 | – |
| Cc1c(C)c2c(c(C)c1O)CCC(C)(C(=O)O)O2 (stereo not drawn) [Trolox, 6-hydroxy-2,5,7,8-tetramethychroman-2-carboxylic acid, reference compound] | – | – | – | – | – | – | – | – | – | – | – | 1.0 | 1.0 | 19.7 ± 0.8 | 1.0 | – |
